Experimental data published in patent publication US9492471B2, “Methods of treating a disease or disorder associated with Bruton'S Tyrosine Kinase” (Celgene Avilomics Research, Inc., priority 2013, dated 2016).
Like-named read-outs stand apart in the source and are kept apart here.

Assays:
Test in all cases: HotSpot kinase profiling
Format in all cases: biochemical
CAMK1a = target: T1, CAMK1a (Homo sapiens, UniProt Q14012)
T1 construct: purchased Reaction Biology Corp
Outline: (§1)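 Radiometric kinase assay with P81 filter capture; each kinase was added to fresh substrate plus cofactors in reaction buffer and incubated 2 h at room temperature. Unreacted phosphate was washed off with 0.1% phosphoric acid before detection; percent inhibition is relative to DMSO control, averaged over replicates.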

CK1g3 = target: T2, CK1g3 (Homo sapiens, UniProt Q9Y6M4)
T2 construct: purchased Reaction Biology Corp
T2 sequence (Q9Y6M4 whole entry): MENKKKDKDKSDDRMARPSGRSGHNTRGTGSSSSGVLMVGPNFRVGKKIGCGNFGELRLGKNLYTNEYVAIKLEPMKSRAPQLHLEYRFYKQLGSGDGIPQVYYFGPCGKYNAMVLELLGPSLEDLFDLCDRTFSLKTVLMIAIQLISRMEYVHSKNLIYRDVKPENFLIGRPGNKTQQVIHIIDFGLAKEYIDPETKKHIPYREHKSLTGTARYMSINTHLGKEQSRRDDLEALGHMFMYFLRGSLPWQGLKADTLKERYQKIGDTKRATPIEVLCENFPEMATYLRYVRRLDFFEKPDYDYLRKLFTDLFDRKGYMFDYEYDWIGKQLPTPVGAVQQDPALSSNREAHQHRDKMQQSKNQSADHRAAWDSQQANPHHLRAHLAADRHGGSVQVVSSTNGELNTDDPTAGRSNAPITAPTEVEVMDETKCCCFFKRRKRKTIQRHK
Outline: as §1

ERBB2/HER2 = target: T3, ERBB2/HER2 (Homo sapiens, UniProt P04626)
T3 construct: purchased Reaction Biology Corp
T3 sequence (P04626 23-1255): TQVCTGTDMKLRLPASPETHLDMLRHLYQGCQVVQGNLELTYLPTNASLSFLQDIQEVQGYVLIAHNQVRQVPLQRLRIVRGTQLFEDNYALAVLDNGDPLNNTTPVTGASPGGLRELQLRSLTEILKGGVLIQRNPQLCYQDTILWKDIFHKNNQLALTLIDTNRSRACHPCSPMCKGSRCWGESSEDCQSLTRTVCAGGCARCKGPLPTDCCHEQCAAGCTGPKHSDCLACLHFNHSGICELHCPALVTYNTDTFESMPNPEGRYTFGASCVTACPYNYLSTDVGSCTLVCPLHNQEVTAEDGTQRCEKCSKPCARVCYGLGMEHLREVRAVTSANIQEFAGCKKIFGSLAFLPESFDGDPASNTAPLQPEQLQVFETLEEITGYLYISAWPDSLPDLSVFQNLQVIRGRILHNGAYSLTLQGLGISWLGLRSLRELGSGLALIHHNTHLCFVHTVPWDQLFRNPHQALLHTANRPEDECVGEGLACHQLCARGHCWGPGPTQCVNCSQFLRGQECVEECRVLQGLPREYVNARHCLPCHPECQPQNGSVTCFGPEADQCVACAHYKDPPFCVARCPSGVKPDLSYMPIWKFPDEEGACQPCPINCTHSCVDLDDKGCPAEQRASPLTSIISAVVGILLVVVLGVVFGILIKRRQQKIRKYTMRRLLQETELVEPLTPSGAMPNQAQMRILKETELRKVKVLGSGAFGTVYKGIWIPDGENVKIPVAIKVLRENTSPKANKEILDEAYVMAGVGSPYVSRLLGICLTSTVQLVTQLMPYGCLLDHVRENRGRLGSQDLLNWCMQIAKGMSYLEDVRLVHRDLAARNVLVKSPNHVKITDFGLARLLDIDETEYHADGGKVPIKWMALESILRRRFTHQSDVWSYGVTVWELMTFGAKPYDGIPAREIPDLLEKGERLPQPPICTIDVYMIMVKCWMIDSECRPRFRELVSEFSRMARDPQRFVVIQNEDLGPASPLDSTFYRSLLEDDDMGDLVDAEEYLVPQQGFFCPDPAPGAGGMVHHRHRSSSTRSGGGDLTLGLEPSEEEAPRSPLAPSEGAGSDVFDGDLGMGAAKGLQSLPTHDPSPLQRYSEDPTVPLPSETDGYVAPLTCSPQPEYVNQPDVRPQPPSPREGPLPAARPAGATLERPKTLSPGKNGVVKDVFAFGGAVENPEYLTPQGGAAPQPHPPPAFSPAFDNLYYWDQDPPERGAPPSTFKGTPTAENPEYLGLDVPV
Outline: as §1

LIMK2 = target: T4, LIMK2 (Homo sapiens, UniProt P53671)
T4 construct: purchased Reaction Biology Corp
T4 sequence (P53671 whole entry): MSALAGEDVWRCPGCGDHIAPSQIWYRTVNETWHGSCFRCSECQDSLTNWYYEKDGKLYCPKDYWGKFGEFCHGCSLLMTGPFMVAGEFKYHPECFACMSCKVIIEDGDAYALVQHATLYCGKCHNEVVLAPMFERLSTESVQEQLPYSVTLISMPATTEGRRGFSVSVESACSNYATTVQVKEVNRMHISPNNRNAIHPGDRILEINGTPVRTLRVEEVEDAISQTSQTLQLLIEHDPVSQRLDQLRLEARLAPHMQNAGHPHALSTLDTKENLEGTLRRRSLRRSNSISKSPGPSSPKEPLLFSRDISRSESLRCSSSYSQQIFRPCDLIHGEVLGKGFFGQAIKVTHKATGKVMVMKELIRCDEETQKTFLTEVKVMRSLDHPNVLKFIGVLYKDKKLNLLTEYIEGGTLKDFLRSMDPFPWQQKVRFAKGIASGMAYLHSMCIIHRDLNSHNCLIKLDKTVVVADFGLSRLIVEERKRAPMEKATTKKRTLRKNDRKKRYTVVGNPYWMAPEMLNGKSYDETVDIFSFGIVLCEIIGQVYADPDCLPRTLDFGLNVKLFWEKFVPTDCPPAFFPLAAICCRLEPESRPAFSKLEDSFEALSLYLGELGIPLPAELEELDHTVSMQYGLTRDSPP
Outline: as §1

MAPKAPK3 = target: T5, MAPKAPK3 (Homo sapiens, UniProt Q16644)
T5 construct: purchased Reaction Biology Corp
T5 sequence (Q16644 whole entry): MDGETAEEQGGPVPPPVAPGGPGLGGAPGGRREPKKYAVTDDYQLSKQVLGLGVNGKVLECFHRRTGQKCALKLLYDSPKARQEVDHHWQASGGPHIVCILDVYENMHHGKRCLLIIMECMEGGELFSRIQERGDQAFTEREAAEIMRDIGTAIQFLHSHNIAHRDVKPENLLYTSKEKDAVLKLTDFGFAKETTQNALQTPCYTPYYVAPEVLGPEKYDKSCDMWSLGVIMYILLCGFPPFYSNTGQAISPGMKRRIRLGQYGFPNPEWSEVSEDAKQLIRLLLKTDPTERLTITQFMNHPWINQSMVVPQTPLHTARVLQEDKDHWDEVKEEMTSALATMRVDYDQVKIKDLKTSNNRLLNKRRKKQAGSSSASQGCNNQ
Outline: as §1

PIM2 = target: T6, PIM2 (Homo sapiens, UniProt Q9P1W9)
T6 construct: purchased Reaction Biology Corp
T6 sequence (Q9P1W9 whole entry): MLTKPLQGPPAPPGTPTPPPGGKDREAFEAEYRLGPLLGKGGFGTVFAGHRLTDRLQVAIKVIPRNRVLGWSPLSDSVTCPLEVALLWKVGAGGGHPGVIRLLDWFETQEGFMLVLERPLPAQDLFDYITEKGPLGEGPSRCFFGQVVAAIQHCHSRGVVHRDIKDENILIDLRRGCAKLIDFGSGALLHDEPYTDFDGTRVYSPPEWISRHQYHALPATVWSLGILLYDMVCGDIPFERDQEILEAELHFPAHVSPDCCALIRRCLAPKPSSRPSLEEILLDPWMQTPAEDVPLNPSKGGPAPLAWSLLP
Outline: as §1

PKG2/PRKG2 = target: T7, PKG2/PRKG2 (Homo sapiens, UniProt Q13237)
T7 construct: purchased Reaction Biology Corp
T7 sequence (Q13237 1-762): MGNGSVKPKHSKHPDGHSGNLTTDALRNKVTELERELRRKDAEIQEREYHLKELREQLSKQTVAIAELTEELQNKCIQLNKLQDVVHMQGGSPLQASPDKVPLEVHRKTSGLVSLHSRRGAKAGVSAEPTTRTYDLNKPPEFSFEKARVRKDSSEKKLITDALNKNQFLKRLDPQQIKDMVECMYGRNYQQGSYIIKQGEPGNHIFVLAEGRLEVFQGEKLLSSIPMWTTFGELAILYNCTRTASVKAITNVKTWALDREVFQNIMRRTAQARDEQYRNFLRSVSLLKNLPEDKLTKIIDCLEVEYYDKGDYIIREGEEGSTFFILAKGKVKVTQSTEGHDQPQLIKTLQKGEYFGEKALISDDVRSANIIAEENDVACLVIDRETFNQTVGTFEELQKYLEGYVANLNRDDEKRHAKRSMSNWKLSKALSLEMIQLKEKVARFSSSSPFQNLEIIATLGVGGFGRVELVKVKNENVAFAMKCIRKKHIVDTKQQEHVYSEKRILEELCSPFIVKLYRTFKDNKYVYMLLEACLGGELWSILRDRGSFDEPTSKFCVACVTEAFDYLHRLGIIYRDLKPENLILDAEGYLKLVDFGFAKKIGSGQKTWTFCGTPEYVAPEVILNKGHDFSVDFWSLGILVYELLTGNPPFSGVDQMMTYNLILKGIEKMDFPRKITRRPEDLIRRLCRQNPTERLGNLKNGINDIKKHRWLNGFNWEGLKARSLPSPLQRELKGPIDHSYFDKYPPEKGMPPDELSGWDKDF
Outline: as §1

ROCK1 = target: T8, ROCK1 (Homo sapiens, UniProt Q13464)
T8 construct: purchased Reaction Biology Corp
T8 sequence (Q13464 whole entry): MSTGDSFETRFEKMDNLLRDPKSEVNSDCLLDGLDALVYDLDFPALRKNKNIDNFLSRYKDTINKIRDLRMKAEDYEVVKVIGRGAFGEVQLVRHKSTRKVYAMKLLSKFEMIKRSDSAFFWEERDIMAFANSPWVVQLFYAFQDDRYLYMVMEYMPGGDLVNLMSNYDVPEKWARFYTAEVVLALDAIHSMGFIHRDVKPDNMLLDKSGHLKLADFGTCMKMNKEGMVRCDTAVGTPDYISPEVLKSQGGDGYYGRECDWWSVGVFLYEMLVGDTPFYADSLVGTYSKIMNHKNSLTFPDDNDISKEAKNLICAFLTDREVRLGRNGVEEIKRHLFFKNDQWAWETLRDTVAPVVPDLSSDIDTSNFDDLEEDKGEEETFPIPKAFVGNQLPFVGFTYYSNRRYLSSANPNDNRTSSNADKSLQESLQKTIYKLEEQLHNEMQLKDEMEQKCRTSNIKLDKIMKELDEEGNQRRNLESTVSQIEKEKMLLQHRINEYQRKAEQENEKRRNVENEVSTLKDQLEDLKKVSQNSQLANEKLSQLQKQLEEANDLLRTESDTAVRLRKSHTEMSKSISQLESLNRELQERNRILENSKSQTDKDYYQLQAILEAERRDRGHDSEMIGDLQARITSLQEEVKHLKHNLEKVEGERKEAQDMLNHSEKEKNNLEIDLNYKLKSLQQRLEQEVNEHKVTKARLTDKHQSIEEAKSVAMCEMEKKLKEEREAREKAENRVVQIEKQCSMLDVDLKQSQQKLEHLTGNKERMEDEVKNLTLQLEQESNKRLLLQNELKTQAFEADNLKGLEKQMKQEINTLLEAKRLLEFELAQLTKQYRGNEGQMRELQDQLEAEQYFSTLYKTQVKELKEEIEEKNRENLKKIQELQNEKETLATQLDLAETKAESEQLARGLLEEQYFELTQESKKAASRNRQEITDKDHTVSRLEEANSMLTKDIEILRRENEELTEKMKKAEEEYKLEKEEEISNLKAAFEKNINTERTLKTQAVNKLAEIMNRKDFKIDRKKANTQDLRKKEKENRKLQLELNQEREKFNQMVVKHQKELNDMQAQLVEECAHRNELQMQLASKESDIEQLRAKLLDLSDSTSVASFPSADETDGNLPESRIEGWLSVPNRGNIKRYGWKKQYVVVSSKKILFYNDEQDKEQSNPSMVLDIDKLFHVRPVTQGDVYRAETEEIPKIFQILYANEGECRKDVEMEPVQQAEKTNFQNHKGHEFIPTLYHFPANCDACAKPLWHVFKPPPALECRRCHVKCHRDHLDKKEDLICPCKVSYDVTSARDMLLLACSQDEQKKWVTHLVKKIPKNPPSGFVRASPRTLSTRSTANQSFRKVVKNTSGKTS
Outline: as §1

TYRO3/SKY = target: T9, TYRO3/SKY (Homo sapiens, UniProt Q06418)
T9 construct: purchased Reaction Biology Corp
T9 sequence (Q06418 41-890): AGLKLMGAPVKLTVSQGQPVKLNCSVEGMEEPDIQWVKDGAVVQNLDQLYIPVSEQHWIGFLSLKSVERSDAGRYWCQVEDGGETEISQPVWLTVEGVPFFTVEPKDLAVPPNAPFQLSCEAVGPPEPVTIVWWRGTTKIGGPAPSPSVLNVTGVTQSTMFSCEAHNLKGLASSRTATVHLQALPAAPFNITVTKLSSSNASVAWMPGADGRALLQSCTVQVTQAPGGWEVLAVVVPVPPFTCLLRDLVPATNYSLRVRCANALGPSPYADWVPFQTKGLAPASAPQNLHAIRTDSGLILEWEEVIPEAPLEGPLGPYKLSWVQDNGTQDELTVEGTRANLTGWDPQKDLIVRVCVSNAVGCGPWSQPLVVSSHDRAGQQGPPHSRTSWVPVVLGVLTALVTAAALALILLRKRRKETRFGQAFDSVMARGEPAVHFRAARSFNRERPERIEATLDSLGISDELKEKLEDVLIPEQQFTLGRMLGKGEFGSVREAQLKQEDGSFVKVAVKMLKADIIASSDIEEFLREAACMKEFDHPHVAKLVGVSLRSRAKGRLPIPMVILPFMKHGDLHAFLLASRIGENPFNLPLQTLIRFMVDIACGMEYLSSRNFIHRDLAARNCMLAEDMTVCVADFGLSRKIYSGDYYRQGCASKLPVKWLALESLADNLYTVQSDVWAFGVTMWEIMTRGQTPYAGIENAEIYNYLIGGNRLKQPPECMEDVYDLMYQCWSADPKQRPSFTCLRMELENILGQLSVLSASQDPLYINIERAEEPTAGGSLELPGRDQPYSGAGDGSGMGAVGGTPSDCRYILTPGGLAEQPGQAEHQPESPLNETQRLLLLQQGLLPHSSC
Outline: as §1

WNK2 = target: T10, WNK2 (Homo sapiens, UniProt Q9Y3S1)
T10 construct: purchased Reaction Biology Corp
Outline: as §1

[1] = read-out: % Enzyme Activity (relative to DMSO controls) Run 1
[2] = read-out: % Enzyme Activity (relative to DMSO controls) Run 2

T1 sequence (Q14012 whole entry): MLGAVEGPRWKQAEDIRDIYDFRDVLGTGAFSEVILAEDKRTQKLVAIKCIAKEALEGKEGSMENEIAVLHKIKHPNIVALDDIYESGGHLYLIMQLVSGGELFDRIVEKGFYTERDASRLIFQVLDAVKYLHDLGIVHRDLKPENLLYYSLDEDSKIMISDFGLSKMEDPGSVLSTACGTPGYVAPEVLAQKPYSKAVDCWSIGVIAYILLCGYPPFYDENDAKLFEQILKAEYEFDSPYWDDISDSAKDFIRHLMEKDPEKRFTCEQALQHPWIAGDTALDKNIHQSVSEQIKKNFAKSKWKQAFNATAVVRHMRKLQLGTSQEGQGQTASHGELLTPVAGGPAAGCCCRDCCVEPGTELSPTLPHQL

C=CC(=O)Nc1cccc(Nc2nc(Nc3ccc(OCCOC)c(F)c3)ncc2F)c1 [Compound 2]
inhibition at 3 µM (CAMK1a): -10.4% | remaining activity at 3 µM (CAMK1a; [1]): 109% | remaining activity at 3 µM (CAMK1a; [2]): 112% | inhibition at 3 µM (CK1g3): 15% | remaining activity at 3 µM (CK1g3; [1]): 84.2% | remaining activity at 3 µM (CK1g3; [2]): 85.8% | inhibition at 3 µM (ERBB2/HER2): 61.3% | remaining activity at 3 µM (ERBB2/HER2; [1]): 39.8% | remaining activity at 3 µM (ERBB2/HER2; [2]): 37.5% | inhibition at 3 µM (LIMK2): -0.86% | remaining activity at 3 µM (LIMK2; [1]): 101% | remaining activity at 3 µM (LIMK2; [2]): 101% | inhibition at 3 µM (MAPKAPK3): -2.45% | remaining activity at 3 µM (MAPKAPK3; [1]): 102% | remaining activity at 3 µM (MAPKAPK3; [2]): 103% | inhibition at 3 µM (PIM2): -32.5% | remaining activity at 3 µM (PIM2; [1]): 136% | remaining activity at 3 µM (PIM2; [2]): 129% | inhibition at 3 µM (PKG2/PRKG2): 14.2% | remaining activity at 3 µM (PKG2/PRKG2; [1]): 87.2% | remaining activity at 3 µM (PKG2/PRKG2; [2]): 84.5% | inhibition at 3 µM (ROCK1): -6.39% | remaining activity at 3 µM (ROCK1; [1]): 108% | remaining activity at 3 µM (ROCK1; [2]): 105% | inhibition at 3 µM (TYRO3/SKY): 4.03% | remaining activity at 3 µM (TYRO3/SKY; [1]): 95.1% | remaining activity at 3 µM (TYRO3/SKY; [2]): 96.8% | inhibition at 3 µM (WNK2): 6.19% | remaining activity at 3 µM (WNK2; [1]): 92.3% | remaining activity at 3 µM (WNK2; [2]): 95.3%
